The source of these data is patent US12427114B2, “Orodispersible dosage unit containing an estetrol component” (ESTETRA SRL, priority 2015, dated 2025).

Data set [1] can be described thus: Randomized, open-label, two-period, cross-over pharmacokinetic study, sublingual versus oral 10 mg estetrol tablet. The data set is classed as in vivo, human. Conditions: 10 mg estetrol sublingual vs oral; healthy female volunteers. The protocol:
A randomized, open-label, two-period, cross-over, pharmacokinetic study is conducted to compare sublingual bioavailability of 10 mg estetrol administered in one 80 mg tablet (having the same composition as the tablets described in Example 4, Formulation E) with oral availability of estetrol contained in a 83 mg tablet containing 10 mg estetrol. These tablets are administered sublingually and orally to healthy female volunteers under fasting conditions.
Ten healthy female subjects are selected on the basis of the following criteria: age of 45-65 years (inclusive), nonsmokers or past smokers (at least 6 months before dosing), body-mass index (BMI)=18.5 to 30 kg/m^2 (inclusive at the time of the screening).
At the start of the first and the second period of the study, between 07:00 am and 07:28 am, 5 subjects receive a single dose of the sublingual formulation of estetrol by administering one estetrol tablet (tablet weight 80 mg; 10 mg estetrol) and 5 subjects receive a single oral dose of the oral estetrol formulation by administering one estetrol tablet (tablet weight 83 mg; 10 mg estetrol), ingested together with 200 ml water. […]
The estetrol concentration in the collected blood samples is determined by means of HPLC/MS/MS. The concentrations of glucuronided estetrol (D-ring) in the urine samples is also determined with the help of HPLC/MS/MS.

The conditions of data set [2]: humans; cited from earlier work.
Data set [3] deals with estrogen receptors. The note with it: in vitro; cited from earlier work.
Data set [4] has as its target T1, sex hormone binding globulin (SHBG) (Homo sapiens, UniProt P04278).
T1 sequence (P04278 30-402): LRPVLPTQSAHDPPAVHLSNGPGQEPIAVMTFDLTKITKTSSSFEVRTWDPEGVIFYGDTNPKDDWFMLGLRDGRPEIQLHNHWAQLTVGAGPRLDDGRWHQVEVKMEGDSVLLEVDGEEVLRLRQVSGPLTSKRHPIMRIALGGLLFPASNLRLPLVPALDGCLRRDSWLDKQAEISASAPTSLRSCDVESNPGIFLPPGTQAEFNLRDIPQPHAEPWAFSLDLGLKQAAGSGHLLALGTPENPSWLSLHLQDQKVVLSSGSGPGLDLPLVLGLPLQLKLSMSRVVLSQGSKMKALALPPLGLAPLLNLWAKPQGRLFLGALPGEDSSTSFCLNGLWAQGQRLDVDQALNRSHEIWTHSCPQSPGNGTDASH
The note with it: cited from earlier work.

Data set [5] relates to production of SHBG. Conditions: in vitro; cited from earlier work.
Data set [6] has as its system vagina, uterus, body weight, bone mass, bone strength, hot flushes, ovulation. Conditions: ovulation (inhibition), dose-dependent; cited from earlier work.
In data set [7] the test system is DMBA mammary tumour. The note with it: extent and dose level similar to tamoxifen and to ovariectomy; cited from earlier work.
For data set [8], the system named is human breast cancer cells. Conditions: in vitro; cited from earlier work.

As for `C[C@]12CC[C@@H]3c4ccc(O)cc4CC[C@H]3[C@@H]1[C@@H](O)[C@@H](O)[C@@H]2O` [estetrol, 1,3,5 (10)-estratrien-3,15α,16α, 17β-tetrol], the “Impact on a liver function parameter, sublingual compared with oral” value in data set [1] was “less impact on a liver function parameter”. In data set [2], the Oral bioavailability result is “high and dose-proportional”; the Terminal elimination half-life entry was “about 28 hours”. Also, the “Estrogen receptor binding selectivity” value in data set [3] was “binds highly selective to the estrogen receptors with preference for the ERα form”. The “Binding to SHBG” value in data set [4] is “does not bind”. The “Stimulation of the production of SHBG” value in data set [5] is “does not stimulate”. Further, in data set [6], the “Estrogenic effects in rat models” value is “exhibited estrogenic effects”. Also, the Tumour development result in data set [7] is listed as “prevented tumour development”. In addition, in data set [8], the “Effect in the presence of 17β-estradiol” value is “anti-estrogenic effect”.
